Patent US7074789B2, “Kinase inhibitors” (Amgen Inc., priority 1999, dated 2006)
pIC50: −log10 of the molar value.

Key:
Format in all cases: biochemical
Zap-70 = target: T1, Zap-70 (Homo sapiens, UniProt P43403); experiment: Kinase inhibition assay (33P transfer), Zap-70; conditions: read-out: Zap-1
T1 construct: Kinases are expressed as either kinase domains or full length constructs; made in house
T1 sequence (P43403 1-619): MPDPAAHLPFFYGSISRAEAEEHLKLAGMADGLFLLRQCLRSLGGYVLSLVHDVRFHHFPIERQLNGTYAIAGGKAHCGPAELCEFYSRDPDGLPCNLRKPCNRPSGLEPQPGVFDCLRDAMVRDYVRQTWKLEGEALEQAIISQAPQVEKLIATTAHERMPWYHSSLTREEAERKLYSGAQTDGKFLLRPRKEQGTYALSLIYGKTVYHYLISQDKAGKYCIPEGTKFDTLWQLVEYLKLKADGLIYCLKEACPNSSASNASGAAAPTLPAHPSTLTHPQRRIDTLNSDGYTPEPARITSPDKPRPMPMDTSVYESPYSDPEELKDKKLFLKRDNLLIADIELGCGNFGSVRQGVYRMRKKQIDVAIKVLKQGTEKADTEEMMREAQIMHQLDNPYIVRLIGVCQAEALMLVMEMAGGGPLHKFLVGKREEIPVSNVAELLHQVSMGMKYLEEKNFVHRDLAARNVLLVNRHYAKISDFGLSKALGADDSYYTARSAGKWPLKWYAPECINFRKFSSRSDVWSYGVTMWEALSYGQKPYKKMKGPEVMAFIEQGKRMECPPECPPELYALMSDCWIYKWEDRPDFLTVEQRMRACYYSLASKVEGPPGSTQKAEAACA
Summary of the method: (§1)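 Steps: express kinase as GST or polyHistidine fusion in E. coli or High Five cells; optionally co-express or mix with regulatory polypeptides; incubate with 33P-ATP and plate-attached poly(Glu,Tyr) 4:1 or poly(Arg,Ser) 3:1; wash with 0.5% phosphoric acid; count by liquid scintillation.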

Fyn = target: T2, Fyn (Homo sapiens, UniProt P06241); experiment: Kinase inhibition assay (33P transfer), Fyn; conditions: read-out: Fyn-1
T2 construct: Kinases are expressed as either kinase domains or full length constructs; made in house
Summary of the method: (§2)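 Each enzyme, purified to near homogeneity by affinity chromatography, was incubated with ATP carrying 33P and a substrate polymer fixed to the plate. Unbound label was removed with dilute phosphoric acid (0.5%) before adding scintillant and counting. Potency is given as the compound level cutting label uptake by 50%.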

EGFR = target: T3, EGFR (Homo sapiens, UniProt P00533); experiment: Kinase inhibition assay (33P transfer), EGFR; conditions: Table 2, kinase inhibition class; read-out: EGFR-1
T3 construct: Kinases are expressed as either kinase domains or full length constructs; made in house
Summary of the method: as §2

ErbB2 = target: T4, ErbB2 (Homo sapiens, UniProt P04626); experiment: Kinase inhibition assay (33P transfer), ErbB2; conditions: read-out: ErbB2-2
T4 construct: Kinases are expressed as either kinase domains or full length constructs; made in house
Summary of the method: as §2

Itk = target: T5, Itk (Homo sapiens, UniProt Q08881); experiment: Kinase inhibition assay (33P transfer), Itk; conditions: read-out: Itk-1
T5 construct: Kinases are expressed as either kinase domains or full length constructs; made in house
T5 sequence (Q08881 1-620): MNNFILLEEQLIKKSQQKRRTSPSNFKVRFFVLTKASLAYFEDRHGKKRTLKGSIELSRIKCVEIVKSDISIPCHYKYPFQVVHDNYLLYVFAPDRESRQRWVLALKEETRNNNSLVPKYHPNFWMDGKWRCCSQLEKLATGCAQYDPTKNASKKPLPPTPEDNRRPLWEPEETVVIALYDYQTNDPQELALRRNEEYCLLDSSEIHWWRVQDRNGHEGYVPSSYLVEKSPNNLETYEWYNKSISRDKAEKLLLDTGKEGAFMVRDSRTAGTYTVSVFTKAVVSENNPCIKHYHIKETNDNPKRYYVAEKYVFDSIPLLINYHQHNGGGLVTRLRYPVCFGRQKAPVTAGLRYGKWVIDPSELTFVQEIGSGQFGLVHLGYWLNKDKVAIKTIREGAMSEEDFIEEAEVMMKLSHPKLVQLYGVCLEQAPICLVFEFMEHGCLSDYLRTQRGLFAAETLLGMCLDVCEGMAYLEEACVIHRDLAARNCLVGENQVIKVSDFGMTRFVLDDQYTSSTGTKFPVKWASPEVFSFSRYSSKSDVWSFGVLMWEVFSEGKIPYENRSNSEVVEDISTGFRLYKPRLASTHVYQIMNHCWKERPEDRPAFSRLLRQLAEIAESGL
Summary of the method: as §2

AKT = target: T6, AKT (Homo sapiens, UniProt Q9Y243); experiment: Kinase inhibition assay (33P transfer), AKT; conditions: Table 2, kinase inhibition class; read-out: AKT3-1
T6 construct: Kinases are expressed as either kinase domains or full length constructs; made in house
Summary of the method: as §1

Hck-1 = target: T7, Hck-1 (Homo sapiens, UniProt P08631); experiment: Kinase inhibition assay (33P transfer), Hck; conditions: Table 6, Hck-1 kinase inhibition class
T7 construct: Kinases are expressed as either kinase domains or full length constructs; made in house

IGFR-1 = target: T8, IGFR-1 (Homo sapiens, UniProt P08069); experiment: Kinase inhibition assay, IGFR-1 (Table 2); conditions: Table 2, kinase inhibition class
T8 construct: Kinases are expressed as either kinase domains or full length constructs; made in house

ErbB4 = target: T9, ErbB4 (Homo sapiens, UniProt Q15303); experiment: Kinase inhibition assay (33P transfer), ErbB4; conditions: read-out: ErbB4-1
T9 construct: Kinases are expressed as either kinase domains or full length constructs; made in house

Lck = target: T10, Lck (Homo sapiens, UniProt P06239); experiment: Kinase inhibition assay (33P transfer), Lck; conditions: read-out: Lck-1
T10 construct: Kinases are expressed as either kinase domains or full length constructs; made in house
Summary of the method: as §1

PDGFRB = target: T11, PDGFRB (Homo sapiens, UniProt P09619); experiment: Kinase inhibition assay (33P transfer), PDGFRB; conditions: read-out: PDGFRB-1
T11 construct: Kinases are expressed as either kinase domains or full length constructs; made in house

Src = target: T12, Src (Homo sapiens, UniProt P12931); experiment: Kinase inhibition assay (33P transfer), Src; conditions: Table 6, Src-1 kinase inhibition class
T12 construct: Kinases are expressed as either kinase domains or full length constructs; made in house
Summary of the method: as §2

Lyn = target: T13, Lyn (Homo sapiens, UniProt P07948); experiment: Kinase inhibition assay (33P transfer), Lyn; conditions: Table 6, Lyn-1 kinase inhibition class
T13 construct: Kinases are expressed as either kinase domains or full length constructs; made in house
Summary of the method: as §2

Ret-1 = target: T14, Ret-1 (Homo sapiens, UniProt P07949); experiment: Kinase inhibition assay (33P transfer), Ret; conditions: Table 6, Ret-1 kinase inhibition class
T14 construct: Kinases are expressed as either kinase domains or full length constructs; made in house

Tek = target: T15, Tek (Homo sapiens, UniProt Q02763); experiment: Kinase inhibition assay (33P transfer), Tek; conditions: read-out: Tek-1
T15 construct: Kinases are expressed as either kinase domains or full length constructs; made in house
Summary of the method: as §2

FGFR1 = target: T16, FGFR1 (Homo sapiens, UniProt P11362); experiment: Kinase inhibition assay (33P transfer), FGFR1; conditions: read-out: FGFR1-1
T16 construct: Kinases are expressed as either kinase domains or full length constructs; made in house

Kdr = target: T17, Kdr (Homo sapiens, UniProt P35968); experiment: Kinase inhibition assay (33P transfer), Kdr; conditions: read-out: KDR-1
T17 construct: Kinases are expressed as either kinase domains or full length constructs; made in house
Summary of the method: as §1

c-Met = target: T18, c-Met (Homo sapiens, UniProt P08581); experiment: Kinase inhibition assay (33P transfer), c-Met; conditions: Table 2, kinase inhibition class; read-out: Met-1
T18 construct: Kinases are expressed as either kinase domains or full length constructs; made in house
Summary of the method: as §2

Flt-1 = target: T19, Flt-1 (Homo sapiens, UniProt P17948); experiment: Kinase inhibition assay (33P transfer), Flt-1
T19 construct: Kinases are expressed as either kinase domains or full length constructs; made in house
Summary of the method: as §2

T16 sequence (P11362 22-822, species assumed): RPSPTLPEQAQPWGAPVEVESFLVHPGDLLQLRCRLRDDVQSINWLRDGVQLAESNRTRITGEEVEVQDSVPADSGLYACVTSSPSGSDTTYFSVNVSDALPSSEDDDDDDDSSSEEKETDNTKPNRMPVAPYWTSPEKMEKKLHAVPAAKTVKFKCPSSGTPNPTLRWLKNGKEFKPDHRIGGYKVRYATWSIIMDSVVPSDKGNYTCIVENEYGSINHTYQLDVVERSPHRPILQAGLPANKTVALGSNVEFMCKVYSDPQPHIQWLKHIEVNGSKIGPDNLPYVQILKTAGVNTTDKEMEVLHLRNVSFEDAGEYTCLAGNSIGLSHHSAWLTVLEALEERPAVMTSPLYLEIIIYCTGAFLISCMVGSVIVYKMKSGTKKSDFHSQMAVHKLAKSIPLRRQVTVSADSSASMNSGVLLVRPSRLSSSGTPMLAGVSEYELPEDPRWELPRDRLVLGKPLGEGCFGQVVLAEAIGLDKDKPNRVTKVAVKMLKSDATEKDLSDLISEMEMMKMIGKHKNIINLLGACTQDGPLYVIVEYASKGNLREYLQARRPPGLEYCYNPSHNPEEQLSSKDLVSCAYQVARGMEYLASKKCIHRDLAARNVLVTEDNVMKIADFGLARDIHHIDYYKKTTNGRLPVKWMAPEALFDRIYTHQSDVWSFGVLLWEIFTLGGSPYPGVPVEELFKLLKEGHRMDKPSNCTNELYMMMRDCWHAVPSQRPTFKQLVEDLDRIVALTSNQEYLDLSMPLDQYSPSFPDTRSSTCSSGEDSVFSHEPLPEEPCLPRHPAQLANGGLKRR
T19 sequence (P17948 27-1338, species assumed): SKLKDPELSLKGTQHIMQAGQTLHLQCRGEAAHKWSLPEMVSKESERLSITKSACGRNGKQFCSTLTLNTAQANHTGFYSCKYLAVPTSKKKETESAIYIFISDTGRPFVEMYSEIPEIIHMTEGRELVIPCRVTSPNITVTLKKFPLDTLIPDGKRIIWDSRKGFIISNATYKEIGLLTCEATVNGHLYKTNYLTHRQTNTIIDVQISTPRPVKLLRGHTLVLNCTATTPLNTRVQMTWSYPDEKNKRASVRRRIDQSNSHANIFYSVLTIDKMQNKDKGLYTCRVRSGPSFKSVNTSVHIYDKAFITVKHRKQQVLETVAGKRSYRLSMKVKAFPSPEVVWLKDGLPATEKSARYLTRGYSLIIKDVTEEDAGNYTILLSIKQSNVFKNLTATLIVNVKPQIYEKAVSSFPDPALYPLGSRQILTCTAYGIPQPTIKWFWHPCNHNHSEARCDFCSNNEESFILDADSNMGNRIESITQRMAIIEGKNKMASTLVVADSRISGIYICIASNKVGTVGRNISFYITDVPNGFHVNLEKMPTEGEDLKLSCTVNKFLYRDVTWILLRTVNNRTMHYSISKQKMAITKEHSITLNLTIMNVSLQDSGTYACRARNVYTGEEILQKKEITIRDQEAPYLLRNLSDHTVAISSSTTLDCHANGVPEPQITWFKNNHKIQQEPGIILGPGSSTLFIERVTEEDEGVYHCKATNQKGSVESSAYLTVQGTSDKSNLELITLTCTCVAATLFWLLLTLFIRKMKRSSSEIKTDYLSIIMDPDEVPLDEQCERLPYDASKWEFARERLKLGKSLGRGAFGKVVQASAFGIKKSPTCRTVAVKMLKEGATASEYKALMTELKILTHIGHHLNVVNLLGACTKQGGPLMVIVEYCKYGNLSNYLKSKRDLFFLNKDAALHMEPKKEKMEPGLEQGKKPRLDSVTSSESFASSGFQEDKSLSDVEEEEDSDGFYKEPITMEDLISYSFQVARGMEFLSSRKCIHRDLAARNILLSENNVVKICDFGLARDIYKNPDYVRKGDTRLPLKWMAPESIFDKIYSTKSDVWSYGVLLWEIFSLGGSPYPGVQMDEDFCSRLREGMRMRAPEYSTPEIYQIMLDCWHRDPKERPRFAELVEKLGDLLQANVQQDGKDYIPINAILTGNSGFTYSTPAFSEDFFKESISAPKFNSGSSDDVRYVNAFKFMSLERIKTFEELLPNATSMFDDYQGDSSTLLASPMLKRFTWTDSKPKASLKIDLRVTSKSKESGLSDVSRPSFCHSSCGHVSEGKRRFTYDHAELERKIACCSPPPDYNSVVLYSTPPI
T7 sequence (P08631 whole entry, the tested form may be a part): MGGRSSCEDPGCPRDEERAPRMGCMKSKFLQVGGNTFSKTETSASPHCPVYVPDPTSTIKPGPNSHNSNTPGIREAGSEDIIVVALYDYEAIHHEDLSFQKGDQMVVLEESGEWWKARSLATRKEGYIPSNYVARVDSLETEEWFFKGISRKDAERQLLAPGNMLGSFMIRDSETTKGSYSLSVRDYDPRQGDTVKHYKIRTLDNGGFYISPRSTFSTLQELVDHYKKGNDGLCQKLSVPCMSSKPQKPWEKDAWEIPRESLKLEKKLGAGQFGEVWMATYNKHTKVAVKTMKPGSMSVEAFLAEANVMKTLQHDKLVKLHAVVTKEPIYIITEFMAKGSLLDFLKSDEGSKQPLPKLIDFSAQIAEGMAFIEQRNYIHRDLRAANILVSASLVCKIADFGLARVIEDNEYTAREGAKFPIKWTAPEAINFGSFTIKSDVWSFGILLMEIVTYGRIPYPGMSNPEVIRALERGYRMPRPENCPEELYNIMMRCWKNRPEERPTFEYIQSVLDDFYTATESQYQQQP
T9 sequence (Q15303 26-1308, species assumed): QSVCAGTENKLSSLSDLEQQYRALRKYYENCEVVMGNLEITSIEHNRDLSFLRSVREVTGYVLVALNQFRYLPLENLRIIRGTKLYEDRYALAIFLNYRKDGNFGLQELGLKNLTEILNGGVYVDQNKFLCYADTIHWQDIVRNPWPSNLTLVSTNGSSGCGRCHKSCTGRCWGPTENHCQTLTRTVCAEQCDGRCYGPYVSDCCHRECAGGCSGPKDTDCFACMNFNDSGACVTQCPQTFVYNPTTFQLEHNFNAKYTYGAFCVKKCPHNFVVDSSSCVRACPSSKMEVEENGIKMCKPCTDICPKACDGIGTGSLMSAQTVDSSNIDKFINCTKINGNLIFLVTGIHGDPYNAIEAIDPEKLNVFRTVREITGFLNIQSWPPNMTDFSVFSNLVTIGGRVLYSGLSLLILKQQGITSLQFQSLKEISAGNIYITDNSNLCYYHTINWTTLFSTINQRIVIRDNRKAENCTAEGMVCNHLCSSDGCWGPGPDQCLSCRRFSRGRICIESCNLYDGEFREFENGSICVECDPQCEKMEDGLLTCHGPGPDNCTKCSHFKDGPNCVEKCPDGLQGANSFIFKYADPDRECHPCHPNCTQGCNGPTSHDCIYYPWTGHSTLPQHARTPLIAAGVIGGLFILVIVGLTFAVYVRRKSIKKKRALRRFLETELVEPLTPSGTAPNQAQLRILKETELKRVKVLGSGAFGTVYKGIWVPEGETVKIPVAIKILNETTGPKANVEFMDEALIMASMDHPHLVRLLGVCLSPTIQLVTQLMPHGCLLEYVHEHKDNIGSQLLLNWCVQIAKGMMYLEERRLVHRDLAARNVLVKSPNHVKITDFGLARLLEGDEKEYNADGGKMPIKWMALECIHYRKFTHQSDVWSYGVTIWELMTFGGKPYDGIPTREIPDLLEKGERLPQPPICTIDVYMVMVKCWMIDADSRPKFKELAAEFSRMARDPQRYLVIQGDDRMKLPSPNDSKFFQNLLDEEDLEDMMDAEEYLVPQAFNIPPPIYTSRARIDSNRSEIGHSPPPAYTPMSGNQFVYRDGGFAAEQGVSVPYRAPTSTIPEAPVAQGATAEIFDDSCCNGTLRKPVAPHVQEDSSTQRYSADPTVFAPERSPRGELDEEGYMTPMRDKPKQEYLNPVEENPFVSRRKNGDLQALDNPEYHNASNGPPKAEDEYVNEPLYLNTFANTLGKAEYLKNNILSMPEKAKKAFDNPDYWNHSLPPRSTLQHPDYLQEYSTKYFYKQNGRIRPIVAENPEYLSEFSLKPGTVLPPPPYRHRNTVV
T11 sequence (P09619 33-1106, species assumed): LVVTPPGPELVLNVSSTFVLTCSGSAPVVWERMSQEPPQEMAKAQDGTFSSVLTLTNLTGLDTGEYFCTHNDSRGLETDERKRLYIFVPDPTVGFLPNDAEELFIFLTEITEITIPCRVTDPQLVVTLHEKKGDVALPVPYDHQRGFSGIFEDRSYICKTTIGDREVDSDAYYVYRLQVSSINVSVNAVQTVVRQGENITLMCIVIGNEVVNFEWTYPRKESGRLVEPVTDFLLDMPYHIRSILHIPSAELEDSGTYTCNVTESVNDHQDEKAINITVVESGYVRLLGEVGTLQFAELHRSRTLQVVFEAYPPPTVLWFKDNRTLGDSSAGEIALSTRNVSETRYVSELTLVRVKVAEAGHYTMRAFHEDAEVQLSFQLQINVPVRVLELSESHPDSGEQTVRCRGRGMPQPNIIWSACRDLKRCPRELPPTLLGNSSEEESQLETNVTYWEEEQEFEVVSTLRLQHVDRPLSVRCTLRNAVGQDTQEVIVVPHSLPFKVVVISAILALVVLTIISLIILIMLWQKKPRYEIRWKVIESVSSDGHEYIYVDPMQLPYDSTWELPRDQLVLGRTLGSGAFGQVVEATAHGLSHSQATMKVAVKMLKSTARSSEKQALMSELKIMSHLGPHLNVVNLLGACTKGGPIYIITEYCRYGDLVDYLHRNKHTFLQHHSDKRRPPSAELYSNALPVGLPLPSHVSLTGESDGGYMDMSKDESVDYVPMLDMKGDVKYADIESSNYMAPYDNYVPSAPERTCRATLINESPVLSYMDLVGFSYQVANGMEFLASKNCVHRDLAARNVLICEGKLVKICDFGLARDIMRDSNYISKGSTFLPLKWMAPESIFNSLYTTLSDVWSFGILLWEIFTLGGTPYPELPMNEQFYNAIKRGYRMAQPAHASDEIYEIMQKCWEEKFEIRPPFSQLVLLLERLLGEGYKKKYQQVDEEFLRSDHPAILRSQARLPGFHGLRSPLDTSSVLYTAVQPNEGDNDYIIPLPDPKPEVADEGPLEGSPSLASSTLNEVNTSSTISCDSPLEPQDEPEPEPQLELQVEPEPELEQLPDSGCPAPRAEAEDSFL

| Structure (SMILES) | pIC50 (Zap-70) | pIC50 (Fyn) | pIC50 (EGFR) | pIC50 (ErbB2) | pIC50 (Itk) | pIC50 (AKT) | pIC50 (Hck-1) | pIC50 (IGFR-1) | pIC50 (ErbB4) | pIC50 (Lck) | pIC50 (PDGFRB) | pIC50 (Src) | pIC50 (Lyn) | pIC50 (Ret-1) | pIC50 (Tek) | pIC50 (FGFR1) | pIC50 (Kdr) | pIC50 (c-Met) | pIC50 (Flt-1) |
| --- | --- | --- | --- | --- | --- | --- | --- | --- | --- | --- | --- | --- | --- | --- | --- | --- | --- | --- | --- |
| COc1cc(Nc2ncnc(Nc3ccc4c(cnn4Cc4ccccc4)c3)n2)cc(OC)c1OC [Compound 177] | 5.14 to 5.30 | > 6.08 | > 6.08 | > 6.08 | 5.03 to 5.14 | 5.14 to 5.30 | 5.30 to 6.08 | 5.30 to 6.08 | > 6.08 | > 6.08 | > 6.08 | > 6.08 | > 6.08 | > 6.08 | 5.30 to 6.08 | 5.14 to 5.30 | 5.30 to 6.08 | 5.30 to 6.08 | 5.30 to 6.08 |
| CCN(CC)CCOc1cc(Nc2ncnc(Nc3cc(OC)c(OC)c(OC)c3)n2)ccc1OC [Compound 600] | < 5.04 | 5.32 to 6.10 | < 5.04 | 5.15 to 5.32 | < 5.04 | < 5.04 | < 5.04 | < 5.04 | 5.32 to 6.10 | > 6.10 | 5.32 to 6.10 | 5.32 to 6.10 | > 6.10 | 5.32 to 6.10 | – | < 5.04 | 5.32 to 6.10 | < 5.04 | < 5.04 |
| CCN(CC)CCOc1ccc(Nc2ncnc(Nc3cc(OC)c(OC)c(OC)c3)n2)cc1OC [Compound 602] | < 5.04 | 5.32 to 6.10 | 5.32 to 6.10 | 5.32 to 6.10 | < 5.04 | < 5.04 | < 5.04 | < 5.04 | 5.32 to 6.10 | 5.32 to 6.10 | 5.32 to 6.10 | 5.32 to 6.10 | 5.32 to 6.10 | < 5.04 | – | < 5.04 | 5.04 to 5.15 | < 5.04 | < 5.04 |
| COc1cc(Nc2ncnc(N(C)c3cccc(Cl)c3)n2)cc(OC)c1OC [Compound 603] | < 4.95 | 5.22 to 6.00 | > 6.00 | > 6.00 | < 4.95 | < 4.95 | 4.95 to 5.06 | 5.22 to 6.00 | 4.95 to 5.06 | > 6.00 | 5.22 to 6.00 | 5.22 to 6.00 | 5.22 to 6.00 | > 6.00 | – | 5.22 to 6.00 | > 6.00 | 5.22 to 6.00 | 5.22 to 6.00 |
| COc1cc(Nc2ncnc(-n3c(NC(C)c4ccc(F)cc4)nc4ccccc43)n2)cc(OC)c1OC (stereo not shown) [Compound 605] | < 5.06 | < 5.06 | < 5.06 | < 5.06 | < 5.06 | < 5.06 | < 5.06 | < 5.06 | < 5.06 | 5.33 to 6.11 | > 6.11 | < 5.06 | 5.33 to 6.11 | > 6.11 | – | > 6.11 | > 6.11 | < 5.06 | 5.33 to 6.11 |
| COc1cc(Nc2ncnc(-n3c(NCc4ccc(Cl)cc4F)nc4ccccc43)n2)cc(OC)c1OC [Compound 606] | < 5.08 | < 5.08 | < 5.08 | 5.08 to 5.19 | < 5.08 | < 5.08 | < 5.08 | 5.08 to 5.19 | < 5.08 | 5.19 to 5.35 | 5.35 to 6.13 | < 5.08 | 5.19 to 5.35 | 5.35 to 6.13 | – | 5.35 to 6.13 | > 6.13 | < 5.08 | 5.19 to 5.35 |
| COc1cc(Nc2ncnc(N(C)c3cccc4ccccc34)n2)cc(OC)c1OC [Compound 607] | < 4.97 | 5.24 to 6.02 | > 6.02 | 5.24 to 6.02 | < 4.97 | < 4.97 | 5.24 to 6.02 | < 4.97 | 5.24 to 6.02 | > 6.02 | 5.24 to 6.02 | 5.24 to 6.02 | > 6.02 | > 6.02 | – | 5.24 to 6.02 | > 6.02 | < 4.97 | 4.97 to 5.08 |
